Test results: patent US7947704B2, “2,4,6-phenyl-substituted cyclic ketoenols” (Bayer CropScience AG, priority 2004, dated 2011)

Assays:
Format in all cases: in vivo
Summer barley = assay: Herbicidal action and safener action, post-emergence, container trials with cereal
Experimental: (§1) Herbicidal Action and Safener Action, Pre-emergence or Post-emergence
(§2) Seeds of rhizome pieces of monocotyledonous and dicotyledonous harmful plants and of crop plants are placed into sandy loam in pots made of peat, covered with soil and cultivated in a greenhouse under growth conditions. In the pre-emergence application, safener and herbicide are applied after sowing, the post-emergence treatment is carried out about two to three weeks after sowing, at the three-leaf stage of the test plants. The herbicide/safener active compound combinations according to the invention, formulated as emulsion concentrates, and in parallel experiments the correspondingly formulated individual active compounds are, at various dosages at a water application rate of 300 l/ha (converted), sprayed onto the surface of the soil when applied by the pre-emergence method and onto the green parts of the plants when applied by the post-emergence method. Pre-emergence evaluation is carried out after 2-4 weeks, post-emergence evaluation is carried out after 1-3 weeks. During this time, the test plants are kept in a greenhouse under optimum growth conditions. The effect of the preparation is scored visually in comparison to untreated controls.
(§3) Container trials with cereal in the greenhouse.
(§4) Safener and herbicide were applied successively to the plants by the post-emergence method (application rates: see Tables)

Winter wheat = assay: as above
Experimental: as §1, §2, §3, §4

Maize [1] = assay: Safener action after seed dressing, herbicide pre-emergence; conditions: seed not safener-dressed
Experimental: Safener Action after Seed Dressing
The number of crop plant seeds needed for each safener application rate was calculated. Based on the weight of 100 seeds, sufficient seeds were weighed into screw top glass bottles approximately twice the volume of the seeds.
The prospective safeners were formulated as wettable powders or water-dispersible granules. These formulations were weighed out so that the required application rates (g of a.i./kg of seed) were obtained. The samples were added to the seeds in the bottles, followed by sufficient water to produce a seed dressing. The bottles were closed and then placed in an overhead shaker (set at medium speed for a period of up to one hour) so that the seeds were evenly coated with the seed dressing. The bottles were opened and the seeds were used in the pre-emergence tests.
Pre-emergence Application of Herbicides
The safener-treated seeds and untreated seeds as controls were sown in a sandy loam soil in round pots having a diameter of 7 to 13 cm and covered with approximately 0.5 to 1 cm of a 1:1 mix of sandy loam soil and sand. The herbicides, as liquid (for example emulsifiable concentrates) or dry (for example wettable powders) formulations, were diluted to the required concentrations using deionized water and applied to the soil surface using a track sprayer calibrated to deliver 300 liters of spray solution per hectare.
The pots were placed under good growing conditions in a greenhouse, and a visual assessment of the herbicidal effects was made 3 to 4 weeks after the application of the herbicide. The assessment was on a percentage basis in comparison to untreated control plants (0%=no damage, 100%=complete kill).
Herbicide application by the pre-emergence method, safener-dressed: […]

Myzus persicae = assay: Myzus Test (spray treatment); conditions: 500 g/ha; after 5 d
Meloidogyne incognita = assay: Meloidogyne Test (gall formation on lettuce roots); conditions: 20 ppm; after 14 d
Experimental: To produce a suitable preparation of active compound, 1 part by weight of active compound is mixed with the stated amounts of solvent and emulsifier, and the concentrate is diluted with water to the desired concentration.
Containers are filled with sand, solution of active compound, Meloidogyne incognita egg/larvae suspension and lettuce seeds. The lettuce seeds germinate and the plants develop. On the roots, galls are formed.
After the desired period of time, the nematicidal action is determined in % by gall formation. 100% means that no galls were found; 0% means that the number of galls on the treated plants corresponds to that of the untreated control.

Lolium = assay: Herbicidal pre-emergence action; conditions: 320 g of a.i./ha
Text: (§5) 1. Herbicidal Pre-emergence Action
(§6) Seeds of monocotyledonous and dicotyledonous weed and crop plants are placed into sandy loam in wood fibre pots and covered with soil. The test compounds, formulated in the form of wettable powders (WP), are then, in various dosages as aqueous suspension with a water application rate of 600 l/ha (converted), with 0.2% of wetting agent added, applied to the surface of the covering soil.
(§7) After the treatment, the pots are placed in a greenhouse and kept under good growth conditions for the test plants. The visual assessment of the emergence damage on the test plants is carried out after a trial period of 3 weeks by comparison with untreated controls (herbicidal effect in percent (%): 100% effect=the plants have died, 0% effect=like control plants).

Setaria = assay: Herbicidal pre-emergence action; conditions: 320 g of a.i./ha
Text: as §5, §6, §7

Summer wheat = assay: Herbicidal action and safener action, post-emergence, container trials with cereal
Experimental: as §1, §2, §3, §4

Maize [2] = assay: Herbicidal action and safener action, safener and herbicide applied successively pre-emergence
Experimental: as §1, §2
Safener and herbicide applied successively by the pre-emergence method.

[3] = application rate 25 g of a.i./ha
[4] = application rate 50 g of a.i./ha
[5] = application rate 100 g of a.i./ha
[6] = herbicide pre-emergence 25 g of a.i./ha
[7] = herbicide pre-emergence 50 g of a.i./ha

## CCOC(=O)OC1=C(c2c(Cl)cc(C)cc2OC)C(=O)NC12CCC(OC)CC2 (stereo not drawn) [Example I-1-c-1]
Summer barley; [3]
  Summer barley (%) observed damage: 10%
Summer barley; [4]
  Summer barley (%) observed damage: 30%
Summer barley; [5]
  Summer barley (%) observed damage: 60%
Winter wheat; [3]
  Winter wheat (%) observed damage: 10%
Winter wheat; [4]
  Winter wheat (%) observed damage: 30%
Maize [1]; [6]
  Maize (%) damage: 35%

## CCOC(=O)OC1=C(c2c(Cl)cc(C)cc2OC)C(=O)OC12CCC(OC)CC2 (mixture of isomers) [Ex. I-2-c-2]
Myzus persicae
  kill rate against Myzus persicae: 100%

## COc1cc(C)cc(Cl)c1C1=C(OC(=O)C(C)C)C2(CCC(OC)CC2)NC1=O (stereo not drawn) [Example I-1-b-1]
Summer barley; [3]
  Summer barley (%) observed damage: 30%
Summer barley; [4]
  Summer barley (%) observed damage: 40%
Summer barley; [5]
  Summer barley (%) observed damage: 55%

## COc1cc(C)cc(Cl)c1C1=C(O)C2(CCOCC2)NC1=O [Ex. I-1-a-1]
Meloidogyne incognita
  kill rate against Meloidogyne: 100%

## COc1cc(C)cc(Cl)c1C1=C(OC(=O)C(C)C)C2(CCCC2)OC1=O [Ex. I-2-b-1]
Myzus persicae
  kill rate against Myzus persicae: 100%

## COc1cc(C)cc(Cl)c1C1=C(O)C(C)(C)NC1=O [Ex. I-1-a-2]
Lolium
  kill rate against Lolium: ≥ 80%
Setaria
  kill rate against Setaria: ≥ 80%

## CCOc1cc(C)cc(Cl)c1C1=C(O)C2(CCC(OC)CC2)NC1=O (single isomer, unassigned) [Example I-1-a-5]
Summer barley; [3]
  Summer barley (%) observed damage: 10%
Summer barley; [4]
  Summer barley (%) observed damage: 20%
Summer barley; [5]
  Summer barley (%) observed damage: 20%
Summer wheat; [3]
  Summer wheat (%) damage: 20%
Summer wheat; [4]
  Summer wheat (%) damage: 50%
Summer wheat; [5]
  Summer wheat (%) damage: 60%
Winter wheat; [3]
  Winter wheat (%) observed damage: 10%
Winter wheat; [4]
  Winter wheat (%) observed damage: 30%
Winter wheat; [5]
  Winter wheat (%) observed damage: 60%
Maize [1]; [6]
  Maize (%) damage: 20%
Maize [1]; [7]
  Maize (%) damage: 20%

## COc1cc(C)cc(Cl)c1C1=C(OC(=O)C(C)C)C2(CCOCC2)OC1=O [Ex. I-2-b-3]
Myzus persicae
  kill rate against Myzus persicae: 100%

## CCOC(=O)OC1=C(c2c(Cl)cc(C)cc2OC)C(=O)OC12CCOCC2 [Ex. I-2-c-3]
Myzus persicae
  kill rate against Myzus persicae: 100%

## CCOC(=O)OC1=C(c2c(Cl)cc(C)cc2OC)C(=O)OC12CCCC2 [Ex. I-2-c-1]
Myzus persicae
  kill rate against Myzus persicae: 100%

## COc1cc(C)cc(Cl)c1C1=C(O)C2(CCC(OC)CC2)NC1=O (single isomer, unassigned) [Ex. I-1-a-3]
Meloidogyne incognita
  kill rate against Meloidogyne: 100%
Myzus persicae
  kill rate against Myzus persicae: 100%

## CCCOc1cc(C)cc(Cl)c1C1=C(O)C2(CCC(OC)CC2)NC1=O (single isomer, unassigned) [Example I-1-a-4]
Summer barley; [3]
  Summer barley (%) observed damage: 0%
Summer barley; [4]
  Summer barley (%) observed damage: 10%
Summer barley; [5]
  Summer barley (%) observed damage: 20%
Summer wheat; [3]
  Summer wheat (%) damage: 20%
Summer wheat; [4]
  Summer wheat (%) damage: 45%
Summer wheat; [5]
  Summer wheat (%) damage: 60%
Winter wheat; [3]
  Winter wheat (%) observed damage: 10%
Winter wheat; [4]
  Winter wheat (%) observed damage: 30%
Winter wheat; [5]
  Winter wheat (%) observed damage: 50%
Maize [2]; [3]
  Maize (%) damage: 10%
Maize [2]; [4]
  Maize (%) damage: 20%
Maize [1]; [6]
  Maize (%) damage: 10%
Maize [1]; [7]
  Maize (%) damage: 20%

## COc1cc(C)cc(Cl)c1C1=C(O)C2(CCCC2)OC1=O [Ex. I-2-a-1]
Myzus persicae
  kill rate against Myzus persicae: 100%

## COc1cc(C)cc(Cl)c1C1=C(O)C2(CCC(OC)CC2)OC1=O (stereo not drawn) [Ex. I-2-a-2]
Myzus persicae
  kill rate against Myzus persicae: 100%
